Test results taken from ChEMBL document CHEMBL1146790, “Structural variations in keto-glutamines for improved inhibition against hepatitis A virus 3C proteinase” (Bioorg Med Chem Lett, 2004).

Each compound was assayed on 3C proteinase (Hepatitis A virus) (assay: Reversible inhibitory activity against Protease at a concentration 100 uM). Conditions: Hepatovirus A.

| SMILES | inhibition [%] |
| --- | --- |
| CC(=O)N[C@@H](CC(C)C)C(=O)N[C@@H](C)C(=O)N[C@@H](C)C(=O)N[C@@H](CCC(=O)N(C)C)C(=O)Cn1nnc(C(=O)O)c1C(=O)O | 1 |
| COC(=O)c1nnn(CC(=O)[C@H](C[C@@H]2CCNC2=O)NC(=O)[C@H](C)NC(=O)[C@H](C)NC(=O)[C@H](CC(C)C)NC(C)=O)c1C(=O)OC | 14 |
| COC(=O)c1nnn(CC(=O)[C@H](CCC(=O)N(C)C)NC(=O)[C@H](C)NC(=O)[C@H](C)NC(=O)[C@H](CC(C)C)NC(C)=O)c1C(=O)OC | 9 |
